The values below are quoted from earlier work in US7307164B2, “β-amino heterocyclic dipeptidyl peptidase inhibitors for the treatment or prevention of diabetes” (Merck & Co., Inc., priority 2002, dated 2007).

One data set concerns hematopoiesis. Conditions: mouse, cyclophosphamide-induced neutropenia.
Another data set concerns cardiac allograft. Conditions: rats; survival from day 7 to day 14.
Another data set has as its target T1, DP-IV (Homo sapiens, UniProt P27487).
T1 construct: GRF is rapidly degraded in plasma to GRF[3-44]

T1 sequence (P27487 whole entry): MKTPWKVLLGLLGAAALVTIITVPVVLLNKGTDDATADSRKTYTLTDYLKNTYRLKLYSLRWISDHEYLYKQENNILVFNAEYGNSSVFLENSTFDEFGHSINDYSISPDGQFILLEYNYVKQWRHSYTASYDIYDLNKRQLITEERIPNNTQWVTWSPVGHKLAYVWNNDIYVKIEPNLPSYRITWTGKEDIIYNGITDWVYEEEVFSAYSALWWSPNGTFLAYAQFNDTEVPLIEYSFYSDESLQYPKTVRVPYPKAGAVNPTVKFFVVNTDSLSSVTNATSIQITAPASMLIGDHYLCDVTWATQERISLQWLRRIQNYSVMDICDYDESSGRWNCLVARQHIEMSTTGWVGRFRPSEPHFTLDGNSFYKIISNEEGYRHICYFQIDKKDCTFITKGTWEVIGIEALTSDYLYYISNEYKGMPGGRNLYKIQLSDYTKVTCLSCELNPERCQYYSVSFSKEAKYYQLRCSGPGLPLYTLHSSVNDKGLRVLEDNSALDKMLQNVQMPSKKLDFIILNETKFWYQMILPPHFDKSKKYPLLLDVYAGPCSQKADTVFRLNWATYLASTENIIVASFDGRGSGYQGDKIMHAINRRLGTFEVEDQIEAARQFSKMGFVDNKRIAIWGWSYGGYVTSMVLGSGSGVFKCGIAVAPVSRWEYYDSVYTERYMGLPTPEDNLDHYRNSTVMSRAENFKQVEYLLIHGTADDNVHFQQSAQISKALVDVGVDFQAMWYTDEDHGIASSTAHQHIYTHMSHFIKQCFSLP

Take `CC(C)[C@H](N)C(=O)N1CCC[C@H]1B(O)O` [Val-Boro-Pro]: the hematopoiesis entry in the data set on hematopoiesis is reported as “stimulated hematopoiesis”. For `CC(C)N1CCC(c2ccccc2)(c2ccccc2)CC1` [Prodipine, Pro-Pro-diphenyl-phosphonate], the cardiac allograft survival entry with cardiac allograft was “double cardiac allograft survival”.

Take `CC[C@H](C)[C@H](N)C(=O)N1CCC[C@H]1C(=O)N[C@H](C(=O)O)[C@@H](C)CC` [diprotin A]: the “degradation of GRF in plasma to GRF[3-44]” value on DP-IV is “prevented”.
